Measured values as given in patent US12503452B2 (Curza Global, LLC, priority 2019, dated 2025).
Structures can show the parent of a compound that is named as a salt. Where two headings read alike, the source gives them in different places.

Experiments:
[1] = tested on: E. coli S30 extract (bacterial protein synthesis); test: E. coli S30 extract coupled transcription-translation luciferase assay (inhibition of bacterial protein synthesis); format: biochemical; conditions: read-out: S30 IC50 (μM/% inhib.)
In short: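 Luminescent read-out of luciferase made from pBESTluc DNA by E. coli S30 extract after 1 h at 37 °C with compound in an 8-point 2-fold series. Background came from no-DNA reactions. Percent inhibition was calculated against water-only controls.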

[2] = molecular target: Rabbit Reticulocyte Lysate (eukaryotic protein synthesis); test: Rabbit reticulocyte lysate luciferase assay (inhibition of eukaryotic protein synthesis); format: biochemical; conditions: read-out: Rabbit reticulocyte IC50 (μM/% inhib.)
In short: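 Compounds were tested in 8-point 2-fold dilution series for blocking luciferase synthesis in nuclease-treated rabbit reticulocyte lysate (30° C., 90 minutes). Luminescence read-out, corrected by no-RNA background, was expressed as % inhibition against water-only reactions.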

A. baumannii (Ab) = test: Broth microdilution minimum inhibitory concentration (MIC); format: cell-based; conditions: Acinetobacter baumannii, read-out: Ab + bicarb MIC
In short: (§1)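 Two-fold compound series, 8 points in triplicate; medium CAMHB ± NaHCO3 (6.25 or 25 mM final) or ± 0–50% heat-inactivated human serum; inoculum 5×10^4 CFU/well; growth-method 0.5 McFarland suspensions; modified CLSI M07-A9.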

E. coli (Ec) = test: as above; format: cell-based; conditions: Escherichia coli, read-out: E. coli + bicarb MIC
In short: as §1

E. faecalis (Ef) = test: as above; format: cell-based; conditions: for MIC: Enterococcus faecalis, read-out: Ef + bicarb MIC
In short: as §1

P. aeruginosa (Pa) = test: as above; format: cell-based; conditions: for MIC: Pseudomonas aeruginosa, read-out: Pa MIC + bicarb
In short: as §1

S. aureus (Sa) = test: as above; format: cell-based; conditions: Staphylococcus aureus, read-out: Sa + bicarb MIC
In short: as §1

[3] = class by IC50 or % inhibition @ 1 μM
[4] = A. baumannii, growth medium with sodium bicarbonate
[5] = E. coli, growth medium with sodium bicarbonate
[6] = E. faecalis, growth medium with sodium bicarbonate
[7] = P. aeruginosa, growth medium with sodium bicarbonate
[8] = S. aureus, growth medium with sodium bicarbonate
[9] = A. baumannii, growth medium supplemented with sodium bicarbonate
[10] = E. coli, growth medium supplemented with sodium bicarbonate
[11] = E. faecalis, growth medium supplemented with sodium bicarbonate
[12] = P. aeruginosa, growth medium supplemented with sodium bicarbonate
[13] = S. aureus, growth medium supplemented with sodium bicarbonate

| SMILES | IC50 [1, 3] [µM] | IC50 [2, 3] [µM] | MIC (A. baumannii (Ab); [4]) [µg/mL] | MIC (E. coli (Ec); [5]) [µg/mL] | MIC (E. faecalis (Ef); [6]) [µg/mL] | MIC (P. aeruginosa (Pa); [7]) [µg/mL] | MIC (S. aureus (Sa); [8]) [µg/mL] | other results |
| --- | --- | --- | --- | --- | --- | --- | --- | --- |
| CO[C@H]1C[C@@H](N(C)Cc2ccc(-n3ccc(NC(=O)N4CCN(C(=O)C(C)(C)N)CC4)nc3=O)cc2)CC[C@@H]1N [Compound 340, hydrochloride salt] | 0.5 to 1 | > 1 |  |  |  |  |  | MIC (A. baumannii (Ab)): > 32 µg/mL; MIC (E. coli (Ec)): < 8 µg/mL; MIC (E. faecalis (Ef)): > 32 µg/mL; MIC (P. aeruginosa (Pa)): > 32 µg/mL; MIC (S. aureus (Sa)): 8 to 32 µg/mL |
| CC(C)(N)C(=O)N1CCN(C(=O)Nc2ccn(-c3ccc(CN[C@H]4CC[C@H](N)CC4)c(OC(F)(F)F)c3)c(=O)n2)CC1 [Compound 332, hydrochloride salt] | < 0.5 | > 1 |  |  |  |  |  | MIC (A. baumannii (Ab)): > 32 µg/mL; MIC (E. coli (Ec)): < 8 µg/mL; MIC (E. faecalis (Ef)): 8 to 32 µg/mL; MIC (P. aeruginosa (Pa)): > 32 µg/mL; MIC (S. aureus (Sa)): 8 to 32 µg/mL |
| CC1(CN)CCN(Cc2ccc(-n3ccc(NC(=O)N4CCN(C(=O)C(C)(C)N)CC4)nc3=O)cc2)CC1 [Compound 249] | < 0.5 | > 1 | > 32 | < 8 | 8 to 32 | > 32 | < 8 |  |
| CN(Cc1ccc(-n2ccc(NC(=O)N3CCN(C(=O)C(C)(C)N)CC3)nc2=O)cc1)C1CC(N)CC(O)C1 (centres unmarked) [Compound 343, hydrochloride salt] | 0.5 to 1 | > 1 |  |  |  |  |  | MIC (A. baumannii (Ab)): > 32 µg/mL; MIC (E. coli (Ec)): 8 to 32 µg/mL; MIC (E. faecalis (Ef)): > 32 µg/mL; MIC (P. aeruginosa (Pa)): > 32 µg/mL; MIC (S. aureus (Sa)): > 32 µg/mL |
| CC(CNC1CNC1)Oc1ccc(-n2ccc(NC(=O)N3CCN(C(=O)C(C)(C)N)CC3)nc2=O)cc1 (centres unmarked) [Compound 183] | > 1 | > 1 | > 32 | > 32 | > 32 | > 32 | > 32 |  |
| CC(C)(N)C(=O)N1CCN(C(=O)Nc2ccn(-c3ccc(CN[C@H]4CC[C@H](N)C4)cc3)c(=O)n2)CC1 [Compound 123] | < 0.5 | > 1 |  |  |  |  |  | MIC (A. baumannii (Ab); [9]): > 32 µg/mL; MIC (E. coli (Ec); [10]): < 8 µg/mL; MIC (E. faecalis (Ef); [11]): > 32 µg/mL; MIC (P. aeruginosa (Pa); [12]): > 32 µg/mL; MIC (S. aureus (Sa); [13]): < 8 µg/mL |
| CC(C)(N)CC1(F)CCN(C(=O)Nc2ccn(-c3ccc(CN4CCC(N)CC4)cc3)c(=O)n2)CC1 [Compound 233] | > 1 | > 1 | > 32 | < 8 | > 32 | > 32 | < 8 |  |
| CC(Cc1ccc(-n2ccc(NC(=O)N3CCN(C(=O)C(C)(C)N)CC3)nc2=O)cc1)N1CC[C@H](CN)C1 (some centres unmarked) [Compound 170] | < 0.5 | > 1 | > 32 | < 8 |  |  | 8 to 32 | Ef + bicarb MIC (E. faecalis (Ef); [6]): + (An MIC value (μg/mL) that is 32 μg/mL or greater); Pa MIC + bicarb (P. aeruginosa (Pa); [7]): ++ (An MIC value (μg/mL) that is 8 μg/mL or greater and less than 32 μg/mL) |
| Cc1cc(-n2ccc(NC(=O)N3CCN(C(=O)C(C)(C)N)CC3)nc2=O)ccc1CCN1CCCC(N)CC1 (centres unmarked) [Compound 140] | < 0.5 | > 1 |  |  |  |  |  | MIC (A. baumannii (Ab); [9]): 8 to 32 µg/mL; MIC (E. coli (Ec); [10]): < 8 µg/mL; MIC (E. faecalis (Ef); [11]): < 8 µg/mL; MIC (P. aeruginosa (Pa); [12]): 8 to 32 µg/mL; MIC (S. aureus (Sa); [13]): < 8 µg/mL |
| CC(C)(N)C(=O)N1CCN(C(=O)Nc2ccn(-c3cc(F)c(CN[C@H]4CC[C@H](N)CC4)c(F)c3)c(=O)n2)CC1 [Compound 353, hydrochloride salt] |  |  |  |  |  |  |  | IC50 ([1]; % inhibition @ 1 μM): < 0.5 µM; IC50 ([2]; % inhibition @ 1 μM): > 1 µM; MIC (A. baumannii (Ab)): > 32 µg/mL; MIC (E. coli (Ec)): < 8 µg/mL; MIC (E. faecalis (Ef)): > 32 µg/mL; MIC (P. aeruginosa (Pa)): > 32 µg/mL; MIC (S. aureus (Sa)): 8 to 32 µg/mL |
| CCN(Cc1ccc(-n2ccc(NC(=O)N3CCN(C(=O)[C@H](C)N)CC3)nc2=O)cc1)C1CCC(N)CC1 (some centres unmarked) [Compound 357] |  |  | > 32 | < 8 | 8 to 32 | > 32 | < 8 | IC50 ([1]; % inhibition @ 1 μM): < 0.5 µM; IC50 ([2]; % inhibition @ 1 μM): > 1 µM |
| C[C@@H]1CN(C(=O)C(C)(C)N)CCN1C(=O)Nc1ccn(-c2ccc(CN3CCC(CN)CC3)cc2)c(=O)n1 [Compound 82] | < 0.5 | > 1 |  |  |  |  |  | MIC (A. baumannii (Ab); [9]): 8 to 32 µg/mL; MIC (E. coli (Ec); [10]): < 8 µg/mL; MIC (E. faecalis (Ef); [11]): < 8 µg/mL; MIC (P. aeruginosa (Pa); [12]): > 32 µg/mL; MIC (S. aureus (Sa); [13]): < 8 µg/mL |
| CCN(C[C@H]1C[C@@H](N)C1)C(C)Cc1ccc(-n2ccc(NC(=O)N3CCN(C(=O)C(C)(C)N)CC3)nc2=O)cc1 (some centres unmarked) [Compound 161] | < 0.5 | > 1 |  |  |  |  |  | MIC (A. baumannii (Ab); [9]): 8 to 32 µg/mL; MIC (E. coli (Ec); [10]): < 8 µg/mL; MIC (E. faecalis (Ef); [11]): < 8 µg/mL; MIC (P. aeruginosa (Pa); [12]): > 32 µg/mL; MIC (S. aureus (Sa); [13]): < 8 µg/mL |
| C[C@@H](N)C1CCN(Cc2ccc(-n3ccc(NC(=O)N4CCN(C(=O)C(C)(C)N)CC4)nc3=O)cc2)CC1 [Compound 219] | 0.5 to 1 | > 1 | > 32 | < 8 | 8 to 32 | > 32 | < 8 |  |
| NCC1CN(C(=O)Nc2ccn(-c3ccc(CCN4CCCC(N)CC4)cc3)c(=O)n2)C1 (centres unmarked) [Compound 194] | 0.5 to 1 | > 1 | > 32 | < 8 | > 32 | > 32 | > 32 |  |
| CCC(N)C1CCCN(Cc2ccc(-n3ccc(NC(=O)N4CCN(C(=O)C(C)(C)N)CC4)nc3=O)cc2)C1 (centres unmarked) [Compound 110] | < 0.5 | > 1 |  |  |  |  |  | MIC (A. baumannii (Ab); [9]): > 32 µg/mL; MIC (E. coli (Ec); [10]): < 8 µg/mL; MIC (E. faecalis (Ef); [11]): 8 to 32 µg/mL; MIC (P. aeruginosa (Pa); [12]): > 32 µg/mL; MIC (S. aureus (Sa); [13]): < 8 µg/mL |
| CC(C)(N)C(=O)N1CCN(C(=O)Nc2ccn(-c3ccc(CCN[C@H]4CC[C@H](N)CC4)cc3)c(=O)n2)CC1 [Compound 180] | 0.5 to 1 | > 1 | > 32 | < 8 | > 32 | > 32 | 8 to 32 |  |
| CC(COc1ccc(-n2ccc(NC(=O)N3CCN(C(=O)C(C)(C)N)CC3)nc2=O)cc1)N1CCCC(N)CC1 (centres unmarked) [Compound 191] | 0.5 to 1 | > 1 | > 32 | < 8 | 8 to 32 | > 32 | < 8 |  |
| CC(C)(N)C(=O)N1CCN(C(=O)Nc2ccn(-c3ccc(CN(C4CC4)[C@H]4CC[C@H](N)CC4)cc3)c(=O)n2)CC1 [Compound 348, hydrochloride salt] |  |  |  |  |  |  |  | IC50 ([1]; % inhibition @ 1 μM): < 0.5 µM; IC50 ([2]; % inhibition @ 1 μM): > 1 µM; MIC (A. baumannii (Ab)): > 32 µg/mL; MIC (E. coli (Ec)): < 8 µg/mL; MIC (E. faecalis (Ef)): > 32 µg/mL; MIC (P. aeruginosa (Pa)): > 32 µg/mL; MIC (S. aureus (Sa)): 8 to 32 µg/mL |
| CC(C)(N)C(=O)N1CCN(C(=O)Nc2ccn(-c3ccc(OCCN4CCCC(CN)C4)cc3)c(=O)n2)CC1 (centres unmarked) [Compound 188] | < 0.5 | > 1 | > 32 | < 8 | < 8 | > 32 | < 8 |  |
| CCN(CC1CNC1)C(C)Cc1ccc(-n2ccc(NC(=O)N3CCN(C(=O)C(C)(C)N)CC3)nc2=O)cc1 (centres unmarked) [Compound 167] | > 1 | > 1 | > 32 | < 8 | 8 to 32 | > 32 | 8 to 32 |  |
| CCN(Cc1ccc(-n2ccc(NC(=O)N3CCN(C(=O)[C@@H](C)NC(=O)[C@@H](C)N)CC3)nc2=O)cc1)C1CCC(N)CC1 (some centres unmarked) [Compound 359] |  |  | > 32 | > 32 | > 32 | > 32 | 8 to 32 | IC50 ([1]; % inhibition @ 1 μM): > 1 µM; IC50 ([2]; % inhibition @ 1 μM): > 1 µM |
| CC(C)(N)C(=O)N1CCN(C(=O)Nc2ccn(-c3ccc(CCNCC4CNC4)cc3)c(=O)n2)CC1 [Compound 345, hydrochloride salt] | 0.5 to 1 | > 1 |  |  |  |  |  | MIC (A. baumannii (Ab)): > 32 µg/mL; MIC (E. coli (Ec)): > 32 µg/mL; MIC (E. faecalis (Ef)): > 32 µg/mL; MIC (P. aeruginosa (Pa)): > 32 µg/mL; MIC (S. aureus (Sa)): > 32 µg/mL |
| CC(C)(N)C(=O)N1CCN(C(=O)Nc2ccn(-c3ccc(CN4CC[C@@H](N)[C@H](O)C4)cc3)c(=O)n2)CC1 [Compound 268] | > 1 | > 1 | > 32 | 8 to 32 | > 32 | > 32 | 8 to 32 |  |
| CCN(Cc1ccc(-n2ccc(NC(=O)N3CCN(C(=O)C(C)(C)N)CC3)nc2=O)cc1F)[C@H]1CC[C@H](N)CC1 [Compound 355] |  |  |  |  |  |  |  | IC50 ([1]; % inhibition @ 1 μM): < 0.5 µM; IC50 ([2]; % inhibition @ 1 μM): > 1 µM; MIC (A. baumannii (Ab)): > 32 µg/mL; MIC (E. coli (Ec)): < 8 µg/mL; MIC (E. faecalis (Ef)): < 8 µg/mL; MIC (P. aeruginosa (Pa)): > 32 µg/mL; MIC (S. aureus (Sa)): < 8 µg/mL |
| CC[C@H]1CN(Cc2ccc(-n3ccc(NC(=O)N4CCN(C(=O)C(C)(C)N)CC4)nc3=O)cc2)CC[C@H]1N [Compound 212] | 0.5 to 1 | > 1 | > 32 | < 8 | < 8 | > 32 | < 8 |  |
